# Laboratory results reported in patent US10905783B2, “Glucosamine and derivatives thereof in imaging” (priority 2015, dated 2021).
# Tests used:
# 4T1 tumor = assay: In vivo CEST MRI of 4T1 breast tumors in mice; parameters: species or system mouse
# Description: 4T1 mouse mammary tumor cell lines were obtained from ATCC. Cells were cultured in high glucose DMEM supplemented 5% FBS, 5% NCS, NEAA and antibiotics (100 units/ml penicillin and 100 μg/ml streptomycin) at 37° C. in a humidified atmosphere containing 5% CO2.
# BALB/C female mice were purchased and kept in the breeding facility of Life Science School, Tel Aviv University. To induce orthotropic xenograph tumors in the mice. 4T1 cells were injected into the lower left mammary gland of 8-week-old (17-22 gram) animals (10^6 cells in 100 μL saline). The tumors were allowed to grow for 10-14 days, reaching an average tumor volume of 5 mm^3. All experiments with animal models were carried out in compliance with the principles of the National Research Council (NRC) and were approved by the institutional animal care and use committee (IACUC) (#M-15-057).
# A Bruker 7 Tesla (T) Biospec scanner with 30 cm bore size was used to scan implanted xenograph mammary tumors of mice before and after administration (i.v., i.p. or p.o.) of glucosamine or its derivatives (the glucose analogues were dissolved in saline, pH 7.4). 4T1 or MCF7 tumor-bearing mice, with an average tumor volume of 2-7 mm^3, were fasted overnight with water access, anesthetized with isoflurane (1-2%) and scanned (without surface coil). Their temperature was maintained at 37° C.
# At first, T2 RARE anatomical images (RARE factor-8, TR-3000 ms, TE-11.7 ms) were acquired to identify the slice selection with maximum tumor size. The CEST images were generated as follows: a series of T2 RARE images (RARE factor-1, TR-3000 ms, TE-11.7 ms) were collected from a single 1 mm coronal slice of the abdominal area (acquisition matrix before zero filling 128×64, field of view of 40×40 mm^2) after a 2 s presaturation pulse of B1=2.5 μT (106 Hz) at the hydroxyl proton frequency offset of ±1.2 ppm from the water signal. The CEST images were acquired before and after glucosamine or its derivatives administration in order to identify the baseline. The acquisition continued for more than an hour after treatment.
# The mean intensities in the selected region of interest (ROI) of the tumor were used for the % CEST plot.
# [1] = test system: TSA and B16 cancer models; conditions: cited from earlier work
# [2] = cited from earlier work
smiles,measurement,setting,value
O=C[C@H](O)[C@@H](O)[C@H](O)[C@H](O)CO [D-glucose],time after administration at which the CEST signal decreased dramatically,"4T1 tumor; D-glucose 1000 mg/kg per os, same animal as glucosamine",30 to 40 min
same,duration of the CEST signal,"4T1 tumor; PO, 4T1 model",less than an hour
same,CEST signal,4T1 tumor; oral doses of less than 1 g/kg,no significant CEST signal
same,CEST signal 60 minutes after administering,"4T1 tumor; same animal, glucosamine at half the dosage of D-glucose",no CEST signal was observed
CC(=O)N[C@H]1C(O)O[C@H](CO)[C@@H](O)[C@@H]1O (stereo partly drawn) [N-Acetyl-D-glucosamine],CEST contrast,[1],increase CEST contrast
"O=C[C@H](F)[C@@H](O)[C@H](O)[C@H](O)CO [FDG, 2-fluoro-deoxy-D-glucose]",toxicity,[2]; high concentrations,toxic at high concentrations
"O=CC[C@@H](O)[C@H](O)[C@H](O)CO [2-DG, 2-deoxy-D-glucose]",toxic dose,[2]; rats,3000 mg/kg
